# Measured values published in the NIST ThermoML archive (doi:10.1021/je900502s).
# Numbers after ± are expanded uncertainties.
# Tests used:
# [1] = for mass density: 101.33 kPa, Liquid, Pycnometric method; for surface tension liquid-gas: Pendant drop shape
# [2] = 293.15 K; 101 kPa; Liquid mixture 1; pendant drop method
mass density ([1]; 293.15 K) [kg/m3],SMILES,surface tension liquid-gas ([1]; 293.15 K) [mN/m],other results
831 ± 3,CCCCCCCCO [octan-1-ol],,
,CCCCCCN(CCCCCC)C(N(C)C)=[N+](CCCCCC)CCCCCC.N#C[N-]C#N,21.35 ± 0.49,
,CCCCCCN(CCCCCC)C(N(C)C)=[N+](CCCCCC)CCCCCC.[Cl-],28.95 ± 0.57,mass density ([1]; 298.15 K): 943 ± 50 kg/m3
,"CCCCCCCC[N+](C)(CCCCCCCC)CCCCCCCC.[Cl-] [N-methyl-N,N-dioctyl-1-octanaminium chloride] + O",,interfacial tension [2]: 3.66 ± 0.36 mN/m
1110 ± 5,CCCCCCCC[n+]1ccn(C)c1.F[B-](F)(F)F [1-methyl-3-octylimidazolium tetrafluoroborate],33.22 ± 0.6,mass density ([1]; 298.15 K): 1115 ± 46 kg/m3
,CCCCCCCCn1cc[n+](C)c1.O=S(=O)([N-]S(=O)(=O)C(F)(F)F)C(F)(F)F + O,,interfacial tension [2]: 22.81 ± 0.41 mN/m
1066 ± 10,CCCCn1cc[n+](C)c1.N#CN=C=[N-] [1-butyl-3-methylimidazolium dicyanamide],38.14 ± 0.68,
,"CCCCCCCC[N+](C)(CCCCCCCC)CCCCCCCC.N#C[N-]C#N [N,N,N-trioctyl-N-methylammonium dicyanamide]",28.8 ± 0.53,mass density ([1]; 298.15 K): 890 ± 3 kg/m3
1212 ± 5,CCCCn1cc[n+](C)c1.F[B-](F)(F)F [1-butyl-3-methylimidazolium tetrafluoroborate],44.28 ± 0.79,mass density ([1]; 298.15 K): 1217 ± 12 kg/m3
,CCCCCCCC[N+](C)(CCCCCCCC)CCCCCCCC.O=S(=O)([N-]S(=O)(=O)C(F)(F)F)C(F)(F)F,22.77 ± 0.43,
1013 ± 5,O [water],,
1242 ± 4,CCOS(=O)(=O)[O-].CCn1cc[n+](C)c1 [1-ethyl-3-methylimidazolium ethyl sulfate],46.13 ± 0.91,
,CCCCCCCCCCCCCC[P+](CCCCCC)(CCCCCC)CCCCCC.Cc1ccc(S(=O)(=O)[O-])cc1 [tetradecyl(trihexyl)phosphonium tosylate],23.2 ± 0.53,mass density ([1]; 298.15 K): 1003 ± 22 kg/m3
,CCCCCCCCCCCCCC[P+](CCCCCC)(CCCCCC)CCCCCC.N#C[N-]C#N [tetradecyl(trihexyl)phosphonium dicyanamide],30.99 ± 0.61,
,CCCC[n+]1ccn(C)c1.O=S(=O)([N-]S(=O)(=O)C(F)(F)F)C(F)(F)F + O,,interfacial tension [2]: 15.15 ± 0.55 mN/m
971 ± 6,CCCCCCCC[n+]1ccn(C)c1.[Cl-] [1-methyl-3-octylimidazolium chloride],26.2 ± 0.57,
,CCCCCCCCO [octan-1-ol] + O,,interfacial tension [2]: 8.3 ± 0.5 mN/m
,CCCCn1cc[n+](C)c1C.O=S(=O)([N-]S(=O)(=O)C(F)(F)F)C(F)(F)F + O,,interfacial tension [2]: 17.04 ± 1.3 mN/m
1121 ± 7,"OCCO [1,2-ethanediol]",,
1306 ± 7,COCCn1cc[n+](C)c1.F[B-](F)(F)F [1-(2-methoxyethyl)-3-methyl-imidazolium tetrafluoroborate],35.31 ± 0.64,
,CCCCCCCCCCCCCC[P+](CCCCCC)(CCCCCC)CCCCCC.[Cl-] [trihexyl(tetradecyl)phosphonium chloride] + O,,interfacial tension [2]: 6.11 ± 0.17 mN/m
1327 ± 9,ClCCl [dichloromethane],,

SMILES,mass density ([1]; 293.15 K) [kg/m3],surface tension liquid-gas ([1]; 293.15 K) [mN/m],other results
CCCCCCCCCCn1cc[n+](C)c1.F[B-](F)(F)F [1-decyl-3-methylimidazolium tetrafluoroborate],1076 ± 3,23.65 ± 0.48,
"CCCCCCCC[N+](C)(CCCCCCCC)CCCCCCCC.[Cl-] [N-methyl-N,N-dioctyl-1-octanaminium chloride]",891 ± 6,26.44 ± 0.49,mass density ([1]; 298.15 K): 896 ± 18 kg/m3
CCCCCCCCn1cc[n+](C)c1.O=S(=O)([N-]S(=O)(=O)C(F)(F)F)C(F)(F)F,1340 ± 4,30.55 ± 0.56,
CCCCCCCCCCCCCC[P+](CCCCCC)(CCCCCC)CCCCCC.[Cl-] [trihexyl(tetradecyl)phosphonium chloride],918 ± 6,30.7 ± 0.56,
CCCCCCCCn1cc[n+](C)c1.N#C[N-]C#N [3-methyl-1-octylimidazolium dicyanamide],1013 ± 3,36.86 ± 0.66,
CCCC[n+]1ccn(C)c1.O=S(=O)([N-]S(=O)(=O)C(F)(F)F)C(F)(F)F,1452 ± 13,,surface tension liquid-gas ([1]; 298.15 K): 38.37 ± 0.69 mN/m
CCCCn1cc[n+](C)c1C.O=S(=O)([N-]S(=O)(=O)C(F)(F)F)C(F)(F)F,1425 ± 24,26.66 ± 0.49,
CCCCCCCCCCn1cc[n+](C)c1.N#C[N-]C#N [1-decyl-3-methylimidazolium dicyanamide],1003 ± 5,31.15 ± 0.57,
Cn1cc[n+](CCO)c1.N#C[N-]C#N [3-(2-hydroxyethyl)-1-methyl-1H-imidazol-3-ium dicyanoazanide],1179 ± 3,45.75 ± 0.81,
